{
  "source": "patent US11008619B2",
  "about": "“Diagnostic markers for platelet function and methods of use” (Duke University, priority 2012, dated 2021)",
  "key": {"[1]": {"test_system": "COX-1 activity", "assay": "Serum thromboxane B2 ELISA", "format": "in vivo, human", "conditions": "HV2; Final visit after 4 weeks 325 mg/day aspirin; range 0.1-2.0", "experimental": "(§1) Platelet function studies. Before each visit, subjects were asked to fast and to refrain from tobacco (during the preceding 24 hrs) and alcohol or intensive exercise on the day of testing. Phlebotomy was performed after 10 minutes of resting supine with minimal trauma or stasis at the venipuncture site using a 21-gauge needle into 3.2% sodium citrate tubes. The focus of these studies was around NCDPF and thus, the NCDPF assays were defined as the following: PFA100, and epinephrine, ADP, and collagen induced LTA. […] Serum thromboxane B2 and AA induced aggregation were chosen as measures of COX-1 activity and also added in vitro aspirin to the AA aggregation assay to further assess for any evidence of unsuppressed COX-1 activity."}, "[2]": {"test_system": "RUNX1 P1 and total transcripts in purified platelets", "assay": "Platelet RNA RT-PCR for RUNX1 transcripts before and after aspirin exposure", "format": "in vivo, human", "conditions": "healthy volunteers, before vs after aspirin exposure", "description": "Platelet purification and RNA isolation.\nRNA was extracted from peripheral blood derived platelets using the miRvana miRNA Isolation Kit (Life Technologies) with acid-phenol chloroform (Life Technologies) separation. Due to the low concentration of available platelet RNA, concentration and integrity were assessed using the Agilent 2100 Bioanalyzer Pico chips (Agilent Technologies; Santa Clara, Calif.). The concentration was too low for accurate determination via standard spectrophotometric methods and for the Agilent Pico RIN algorithm to accurately determine a RIN quality score. As a result, quality was assessed by visualization of the Bioanalyzer lane curve. RNA samples with obvious 18S and 28S peaks, minimal degradation “noise” between peaks, and no large aberrant peaks above or below the 18S and 28S bands were selected for further analysis. […]\nConcentration and integrity of available platelet RNA were assessed using Agilent 2100 Bioanalyzer Pico chips (Agilent Technologies; Santa Clara, Calif.). […] As a result, quality was assessed by visualization of the Bioanalyzer trace. […]\nA loading test plate was run using 4 samples; 2 from each experimental group. […] Optimal loading would result in expression of our lowest targets of interest resulting in Cq values <35, abundant transcripts >18 and a minimal loss of low quantity samples to high RNA loading requirements. […]"}, "[3]": {"test_system": "COX-1 dependent platelet function", "assay": "Arachidonic acid-induced platelet aggregation (light transmittance aggregometry), with and without in vitro aspirin", "format": "in vivo, human", "experimental": "as §1\n(§2) Light transmittance aggregometry. Light transmittance aggregometry (LTA) was performed as previously described (Born (1964) Nature 202:95-96) using the following agonists: arachidonic acid (AA, Chrono-log, 0.5 mM), epinephrine (Chrono-Log, 10, 1, and 0.5 μM), ADP (Chrono-Log, 10, 5, and 1 μM), and collagen (Chrono-Log, 5 and 2 μg/ml). The area under the LTA curve (AUC) was chosen as the primary measure of aggregation because the AUC captures several features of the aggregometry curve that are each sensitive to the effects of aspirin: slope, maximal aggregation, and final aggregation. To standardize AUC measurements across individuals and visits the test duration was fixed at 12 minutes for epinephrine and six minutes for collagen, AA, and ADP."}, "[4]": {"test_system": "non COX-1 dependent platelet function (NCDPF)", "assay": "In vitro addition of aspirin to PRP, epinephrine/ADP/collagen induced light transmittance aggregometry", "format": "cell-based, human", "conditions": "n=5 HV2 and n=15 DM on daily aspirin", "experimental": "Light transmittance aggregometry. […] The area under the LTA curve (AUC) was chosen as the primary measure of aggregation because the AUC captures several features of the aggregometry curve that are each sensitive to the effects of aspirin: slope, maximal aggregation, and final aggregation. To standardize AUC measurements across individuals and visits the test duration was fixed at 12 minutes for epinephrine and six minutes for collagen, AA, and ADP.\nDescription of area under the curve (AUC) measurement. Using light transmittance aggregometry the percent aggregation is plotted over time to produce the upper curve similar to FIG. 21. The AUC is measured by the aggregometer over the duration of the test, which is fixed at 6 minutes for collagen and ADP and 12 minutes for epinephrine. Higher AUC values reflect higher maximal and residual aggregation, slope, and velocities.\nIn vitro aspirin. A stock solution of aspirin was created by dissolving acetylsalicylic acid (Sigma-Aldrich A5376) into DMSO and aliquots stored at −80 degrees Celsius. On the day of use, fresh aliquots were thawed, diluted in PBS, and stored at 4 degrees Celsius. […] The PRP was allowed to incubate with in vitro aspirin for 10 minutes at room temperature prior to the addition of agonist."}, "[5]": {"test_system": "human promyelocytic cell line (HL60)", "conditions": "HL60, in vitro aspirin vs vehicle-only control; cited from earlier work"}, "[6]": {"test_system": "non COX-1 dependent platelet function (NCDPF)", "assay": "Platelet function score (PFS) in aspirin challenge study", "format": "in vivo, human", "conditions": "for mean difference in Pre vs. Post PFS: before vs 3 hrs after single 325 mg aspirin, p<0.0001; for Post PFS: after first 325 mg dose", "experimental": "A group of healthy adult volunteers (HV1) were recruited and a defined set of platelet function measurements, as described below, were made before aspirin (“Pre”) and 3-hrs after (“Post”) a single 325 mg tablet of aspirin. Subsequently, subjects were returned for a final assessment (“Final”) 2 weeks after 325 mg/day aspirin. This dose of aspirin was chosen to ensure complete suppression of platelet COX-1 activity in each participant. The 3-hour timepoint was chosen to measure the maximal inhibitory effect of aspirin.\nas §1, §2\nPlatelet Function Analyzer. PFA100 closure time with the use of the collagen/epinephrine cartridge was performed. […] Briefly, citrated whole blood was placed in the PFA100 chamber and blood was aspirated through an aperture in a collagen/epinephrine coated membrane. The amount of time (in seconds[s], up to a maximum of 300 s) until blood ceased to flow through the membrane aperture was recorded as the final result.\nPlatelet Function Score. […] A platelet function score was derived from a principal components analysis (PCA) of all platelet function measurements made in the HV1 cohort. PCA was chosen to quantify this biological factor. PCA is an unbiased, mathematical technique for reducing a collection of measurements down to a single “meta-measurement” that best describes the aggregate behavior of the set. For example, in the biological sciences, PCA can quantify population substructure in genome wide association studies, patterns of gene expression in microarray experiments, and metabolic pathways in metabolomic studies. In the present study, the input into the PCA was the following set of non-imputed measures from the HV1 cohort: the PFA100 closure time and the AUC from each concentration of ADP, epinephrine, and collagen LTA."}},
  "data": [
    {"smiles": "CC(=O)Oc1ccccc1C(=O)O", "note": "[aspirin, acetylsalicylic acid]", "values": [
      {"measurement": "serum thromboxane B2 mean concentration", "setting": "[1]", "result": 0.3, "unit": "ng/mL"},
      {"measurement": "change in total RUNX1 gene expression", "setting": "[2]", "result": "minimal changes"},
      {"measurement": "up (or down) regulation in P1 RUNX1 expression", "setting": "[2]", "result": "≤ 5", "unit": "fold"},
      {"measurement": "AAA median % aggregation", "setting": "[3]; HV2 and DM subjects, Final visit on daily 325 mg aspirin, range 0-7%", "result": 3.0, "unit": "%"},
      {"measurement": "effect of in vitro addition of aspirin on AAA", "setting": "[3]; in vitro aspirin 53 μM added after 325 mg oral dose, HV2 and DM", "result": "no further effect"},
      {"measurement": "COX-1 dependent platelet function, as assessed by AAA", "setting": "[3]; single 325 mg dose, all HV2 and DM subjects, AA 0.5 mM", "result": "effectively suppressed"},
      {"measurement": "mean change aggregation with in vitro aspirin", "setting": "[4]; ADP 5 μM, CI −6.9-2.4%, p=0.3", "result": "−2.3", "unit": "%"},
      {"measurement": "mean change aggregation with in vitro aspirin", "setting": "[4]; collagen 2 mg/ml, CI −6.9, 10.0, p=0.71", "result": 1.5, "unit": "%"},
      {"measurement": "mean change aggregation with in vitro aspirin", "setting": "[4]; epinephrine 0.5, CI −0.8-4.8%, p=0.2", "result": 2.0, "unit": "%"},
      {"measurement": "expression of a P1-specific RUNX1 probe set", "setting": "[5]", "result": "increased"},
      {"measurement": "expression of the remaining RUNX1 probe sets", "setting": "[5]", "result": "did not change"},
      {"measurement": "expression of two P2 RUNX1 probe sets", "setting": "[5]", "result": "decreased"},
      {"measurement": "mean difference in Pre vs. Post PFS", "setting": "[6]; DM diabetics, 95% CI 3.6-4.8", "result": 4.2},
      {"measurement": "mean difference Post and Final PFS", "setting": "[6]; HV1, after two weeks of 325 mg/day aspirin, shifted higher, CI 0.1-0.8, p=0.01", "result": 0.5},
      {"measurement": "mean difference in Pre vs. Post PFS", "setting": "[6]; HV1 healthy volunteers, 95% CI 3.0-3.7", "result": 3.4},
      {"measurement": "mean difference between Post and Final PFS", "setting": "[6]; HV2, after four weeks of 325 mg/day aspirin, shift to higher PFS, CI 0.2-1.2, p=0.004", "result": 0.7},
      {"measurement": "mean difference in Pre vs. Post PFS", "setting": "[6]; HV2 healthy volunteers, 95% CI 4.5-5.2", "result": 4.8},
      {"measurement": "Post PFS", "setting": "[6]; HV2 subjects that decreased their Final PFS", "result": 1.68},
      {"measurement": "Post PFS", "setting": "[6]; HV2 subjects that increased their Final PFS", "result": "−1.0"}
    ]}
  ]
}
